Earlier results as cited in paper PMC8513935.

What was measured:
[1] = experimental, compiled by the authors from the literature (the ESI cites the sources)
[2] = derived by the authors as gas->solvent minus gas->water (a hypothetical dry solvent; the ESI), not a two-phase measurement
[3] = log P octanol/water from commercial databases, averaged (the ESI); conditions: Octanol (wet), 25 C

## CCCCCCCCO
[1]; Benzene, 25 C
  log K of transfer, gas to solvent: 5.91 log10 K
[1]; Butanone, 25 C
  log K of transfer, gas to solvent: 6.01 log10 K
[1]; Butyronitrile, 25 C
  log K of transfer, gas to solvent: 5.69 log10 K
[1]; CCl4, 25 C
  log K of transfer, gas to solvent: 5.09 log10 K
[1]; Hexadecane, 25 C
  log K of transfer, gas to solvent: 4.62 log10 K
[1]; Hexan-1-ol, 25 C
  log K of transfer, gas to solvent: 6.29 log10 K
[1]; Methanol, 25 C
  log K of transfer, gas to solvent: 5.89 log10 K
[1]; Octan-1-ol, 25 C
  log K of transfer, gas to solvent: 6.03 log10 K
[1]; Water, 25 C
  log K of transfer, gas to solvent: 3 log10 K
[2]; Benzene, 25 C
  log K of transfer, water to solvent: 2.91 log10 K
[2]; Butanone, 25 C
  log K of transfer, water to solvent: 3.01 log10 K
[2]; Butyronitrile, 25 C
  log K of transfer, water to solvent: 2.69 log10 K
[2]; CCl4, 25 C
  log K of transfer, water to solvent: 2.09 log10 K
[2]; Hexadecane, 25 C
  log K of transfer, water to solvent: 1.62 log10 K
[2]; Hexan-1-ol, 25 C
  log K of transfer, water to solvent: 3.29 log10 K
[2]; Methanol, 25 C
  log K of transfer, water to solvent: 2.89 log10 K
[2]; Octan-1-ol(dry), 25 C
  log K of transfer, water to solvent: 3.03 log10 K
[3]
  log K of transfer, water to solvent: 3.07 log10 K

## CCCCc1ccccc1
[1]; Ethanol, 25 C
  log K of transfer, gas to solvent: 4.2 log10 K
[1]; Hexadecane, 25 C
  log K of transfer, gas to solvent: 4.73 log10 K
[1]; Methanol, 25 C
  log K of transfer, gas to solvent: 4.28 log10 K
[1]; Propan-2-ol, 25 C
  log K of transfer, gas to solvent: 4.35 log10 K
[1]; Tetrahydrofuran, 25 C
  log K of transfer, gas to solvent: 5.38 log10 K
[1]; Water, 25 C
  log K of transfer, gas to solvent: 0.29 log10 K
[2]; Ethanol, 25 C
  log K of transfer, water to solvent: 3.91 log10 K
[2]; Hexadecane, 25 C
  log K of transfer, water to solvent: 4.44 log10 K
[2]; Methanol, 25 C
  log K of transfer, water to solvent: 3.99 log10 K
[2]; Propan-2-ol, 25 C
  log K of transfer, water to solvent: 4.06 log10 K
[2]; Tetrahydrofuran, 25 C
  log K of transfer, water to solvent: 5.09 log10 K
[3]
  log K of transfer, water to solvent: 4.26 log10 K

## CCCCCCCC
[1]; 1,2-Dichloroethane, 25 C
  log K of transfer, gas to solvent: 3.44 log10 K
[1]; 2-Methylpropan-2-ol, 25 C
  log K of transfer, gas to solvent: 3.39 log10 K
[1]; 3-Methylbutan-1-ol, 25 C
  log K of transfer, gas to solvent: 3.4 log10 K
[1]; Acetonitrile, 25 C
  log K of transfer, gas to solvent: 2.68 log10 K
[1]; Benzene, 25 C
  log K of transfer, gas to solvent: 3.92 log10 K
[1]; Butan-1-ol, 25 C
  log K of transfer, gas to solvent: 3.26 log10 K
[1]; Butanone, 25 C
  log K of transfer, gas to solvent: 3.45 log10 K
[1]; Butyronitrile, 25 C
  log K of transfer, gas to solvent: 3.21 log10 K
[1]; CCl4, 25 C
  log K of transfer, gas to solvent: 4.05 log10 K
[1]; Chlorobenzene, 25 C
  log K of transfer, gas to solvent: 3.99 log10 K
[1]; Chloroform, 25 C
  log K of transfer, gas to solvent: 3.9 log10 K
[1]; Cyclohexane, 25 C
  log K of transfer, gas to solvent: 4.07 log10 K
[1]; Cyclohexanone, 25 C
  log K of transfer, gas to solvent: 3.42 log10 K
[1]; Decan-1-ol, 25 C
  log K of transfer, gas to solvent: 3.32 log10 K
[1]; Di-n-butyl ether, 25 C
  log K of transfer, gas to solvent: 3.85 log10 K
[1]; Dichloromethane, 25 C
  log K of transfer, gas to solvent: 3.72 log10 K
[1]; Diethyl Ether, 25 C
  log K of transfer, gas to solvent: 3.92 log10 K
[1]; Ethanol, 25 C
  log K of transfer, gas to solvent: 3.17 log10 K
[1]; Hexadecane, 25 C
  log K of transfer, gas to solvent: 3.68 log10 K
[1]; Hexane, 25 C
  log K of transfer, gas to solvent: 3.97 log10 K
[1]; Methanol, 25 C
  log K of transfer, gas to solvent: 2.82 log10 K
[1]; Octan-1-ol, 25 C
  log K of transfer, gas to solvent: 3.3 log10 K
[1]; Pentan-1-ol, 25 C
  log K of transfer, gas to solvent: 3.39 log10 K
[1]; Perfluoroalkane, 25 C
  log K of transfer, gas to solvent: 2.54 log10 K
[1]; Propan-1-ol, 25 C
  log K of transfer, gas to solvent: 3.17 log10 K
[1]; Propan-2-ol, 25 C
  log K of transfer, gas to solvent: 3.17 log10 K
[1]; Propanone, 25 C
  log K of transfer, gas to solvent: 3.23 log10 K
[1]; Propionitrile, 25 C
  log K of transfer, gas to solvent: 3.05 log10 K
[1]; Tetrahydrofuran, 25 C
  log K of transfer, gas to solvent: 3.85 log10 K
[1]; Toluene, 25 C
  log K of transfer, gas to solvent: 3.94 log10 K
[1]; Water, 25 C
  log K of transfer, gas to solvent: -2.11 log10 K
[2]; 1,2-Dichloroethane, 25 C
  log K of transfer, water to solvent: 5.55 log10 K
[2]; 2-Methylpropan-2-ol, 25 C
  log K of transfer, water to solvent: 5.5 log10 K
[2]; 3-Methylbutan-1-ol, 25 C
  log K of transfer, water to solvent: 5.51 log10 K
[2]; Acetone, 25 C
  log K of transfer, water to solvent: 5.34 log10 K
[2]; Acetonitrile, 25 C
  log K of transfer, water to solvent: 4.79 log10 K
[2]; Benzene, 25 C
  log K of transfer, water to solvent: 6.03 log10 K
[2]; Butan-1-ol, 25 C
  log K of transfer, water to solvent: 5.37 log10 K
[2]; Butanone, 25 C
  log K of transfer, water to solvent: 5.56 log10 K
[2]; Butyronitrile, 25 C
  log K of transfer, water to solvent: 5.32 log10 K
[2]; CCl4, 25 C
  log K of transfer, water to solvent: 6.16 log10 K
[2]; Chlorobenzene, 25 C
  log K of transfer, water to solvent: 6.1 log10 K
[2]; Chloroform, 25 C
  log K of transfer, water to solvent: 6.01 log10 K
[2]; Cyclohexane, 25 C
  log K of transfer, water to solvent: 6.18 log10 K
[2]; Cyclohexanone, 25 C
  log K of transfer, water to solvent: 5.53 log10 K
[2]; Decan-1-ol, 25 C
  log K of transfer, water to solvent: 5.43 log10 K
[2]; Di-n-butyl ether, 25 C
  log K of transfer, water to solvent: 5.96 log10 K
[2]; Dichloromethane, 25 C
  log K of transfer, water to solvent: 5.83 log10 K
[2]; Diethyl Ether, 25 C
  log K of transfer, water to solvent: 6.03 log10 K
[2]; Ethanol, 25 C
  log K of transfer, water to solvent: 5.28 log10 K
[2]; Hexadecane, 25 C
  log K of transfer, water to solvent: 5.78 log10 K
[2]; Hexane, 25 C
  log K of transfer, water to solvent: 6.08 log10 K
[2]; Methanol, 25 C
  log K of transfer, water to solvent: 4.93 log10 K
[2]; Octan-1-ol(dry), 25 C
  log K of transfer, water to solvent: 5.41 log10 K
[2]; Pentan-1-ol, 25 C
  log K of transfer, water to solvent: 5.5 log10 K
[2]; Perfluoroalkane, 25 C
  log K of transfer, water to solvent: 4.65 log10 K
[2]; Propan-1-ol, 25 C
  log K of transfer, water to solvent: 5.28 log10 K
[2]; Propan-2-ol, 25 C
  log K of transfer, water to solvent: 5.28 log10 K
[2]; Propionitrile, 25 C
  log K of transfer, water to solvent: 5.16 log10 K
[2]; Tetrahydrofuran, 25 C
  log K of transfer, water to solvent: 5.96 log10 K
[2]; Toluene, 25 C
  log K of transfer, water to solvent: 6.05 log10 K
[3]
  log K of transfer, water to solvent: 5.15 log10 K
